# Reference: PubChem BioAssay (NCI)
#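 Results reflect a 48-hour exposure of cells in 96-well plates to compound at five concentrations. TGI marks complete inhibition of growth.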
# Tests used:
# Experiment in all cases: NCI-60 cell line screen, 48 h
# SF-539 CNS = test system: SF-539 CNS
# HCT-116 colon = test system: HCT-116 colon
# UO-31 renal = test system: UO-31 renal
# A549 NSCLC = test system: A549 NSCLC
# MDA-MB-435 = test system: MDA-MB-435
# OVCAR-5 ovarian = test system: OVCAR-5 ovarian
# MALME-3M melanoma = test system: MALME-3M melanoma
# SK-MEL-5 melanoma = test system: SK-MEL-5 melanoma
# SF-295 CNS = test system: SF-295 CNS
# DU-145 prostate = test system: DU-145 prostate
# OVCAR-4 ovarian = test system: OVCAR-4 ovarian
# SW-620 colon = test system: SW-620 colon
# MCF7 breast = test system: MCF7 breast
# M14 melanoma = test system: M14 melanoma
# NCI-H23 lung = test system: NCI-H23 lung
# HOP-62 NSCLC = test system: HOP-62 NSCLC
# HCT-15 colon = test system: HCT-15 colon
# UACC-62 melanoma = test system: UACC-62 melanoma
# SK-OV-3 ovarian = test system: SK-OV-3 ovarian
# COLO 205 colon = test system: COLO 205 colon
# U251 CNS = test system: U251 CNS
# SK-MEL-2 melanoma = test system: SK-MEL-2 melanoma
# HOP-92 NSCLC = test system: HOP-92 NSCLC
# LOX IMVI melanoma = test system: LOX IMVI melanoma
# SK-MEL-28 melanoma = test system: SK-MEL-28 melanoma
# A498 renal = test system: A498 renal
# SN12C renal = test system: SN12C renal
# KM12 colon = test system: KM12 colon
# 786-0 renal = test system: 786-0 renal
# EKVX NSCLC = test system: EKVX NSCLC
# MDA-MB-231 breast = test system: MDA-MB-231 breast
# SNB-75 CNS = test system: SNB-75 CNS
# HT29 colon = test system: HT29 colon
# NCI/ADR-RES ovarian = test system: NCI/ADR-RES ovarian
# UACC-257 melanoma = test system: UACC-257 melanoma
# MDA-N = test system: MDA-N
# OVCAR-8 ovarian = test system: OVCAR-8 ovarian
# ACHN renal = test system: ACHN renal
# PC-3 prostate = test system: PC-3 prostate
smiles,measurement,setting,value
Cc1csc2nc(-c3ccc(Cl)c([N+](=O)[O-])c3)c(/C=N/N=C(N)N)n12,TGI,SF-539 CNS,2.98 µM
same,TGI,HCT-116 colon,3.97 µM
same,TGI,UO-31 renal,2.33 µM
same,TGI,A549 NSCLC,3.54 µM
same,TGI,MDA-MB-435,3.13 µM
same,TGI,OVCAR-5 ovarian,2.55 µM
same,TGI,MALME-3M melanoma,4.38 µM
same,TGI,SK-MEL-5 melanoma,2.94 µM
same,TGI,SF-295 CNS,2.78 µM
same,TGI,DU-145 prostate,4.86 µM
same,TGI,OVCAR-4 ovarian,3.4 µM
same,TGI,SW-620 colon,1.35 µM
same,TGI,MCF7 breast,3.67 µM
same,TGI,M14 melanoma,3.38 µM
same,TGI,NCI-H23 lung,3.29 µM
same,TGI,HOP-62 NSCLC,3.41 µM
same,TGI,HCT-15 colon,3.02 µM
same,TGI,UACC-62 melanoma,3.3 µM
same,TGI,SK-OV-3 ovarian,3.24 µM
same,TGI,COLO 205 colon,2.37 µM
same,TGI,U251 CNS,2.97 µM
same,TGI,SK-MEL-2 melanoma,2.48 µM
same,TGI,HOP-92 NSCLC,1.38 µM
same,TGI,LOX IMVI melanoma,2.97 µM
same,TGI,SK-MEL-28 melanoma,3.45 µM
same,TGI,A498 renal,2.85 µM
same,TGI,SN12C renal,3.68 µM
same,TGI,KM12 colon,4.75 µM
same,TGI,786-0 renal,2.93 µM
same,TGI,EKVX NSCLC,2.93 µM
same,TGI,MDA-MB-231 breast,3.68 µM
same,TGI,SNB-75 CNS,3.37 µM
same,TGI,HT29 colon,3.26 µM
same,TGI,NCI/ADR-RES ovarian,5.95 µM
same,TGI,UACC-257 melanoma,1.82 µM
same,TGI,MDA-N,2.69 µM
same,TGI,OVCAR-8 ovarian,1.57 µM
same,TGI,ACHN renal,2.94 µM
same,TGI,PC-3 prostate,2.81 µM
